From patent EP4578939A1, “MYC[…]. BASED ON VARIOUS CARBON-NITROGEN METABOLIC […], METHOD FOR ISOLATING SAME, AND USE THEREOF” (Peng, Guanghao, priority 2022, dated 2024)
Counter-ions that a name gives are not always drawn. Like-named read-outs stand apart in the source and are kept apart here.

System: strain YT
Test: inhibition of nitrification inhibitors on nitrification activity and growth
Type: cell-based, Mycobacterium sp.
Settings: for inhibition at 5000 µM: Mycobacterium, read-out: Nitric oxide synthase (nitrification) activity inhibition rate (%); for inhibition at 5000 µM / effect on growth of strain YT / effect on nitrification activity of strain YT / NH4^+-N / NO2^--N / Nitric oxide synthase (nitrification) activity inhibition rate (%) / OD600: inhibitor 5 mM; for effect on growth of strain YT: pure culture with two nitrogen sources; for effect on nitrification activity of strain YT: pure culture; for inhibition rate on nitrification activity: over the 35 days of culture
Method: The nitrogen contents of the two nitrogen sources were equal in a modified Stephenson medium with (NH4)2SO4 as a nitrogen source (NH4)2SO4 content was 2.0g/L) and a modified Stephenson medium with L-arginine hydrochloride (C6H14N4O2•HCl) as a nitrogen source (C6H14N4O2•HCl content was 1.6 g/L).
When sodium pyruvate was added as a carbon source in the design of a culture medium, 1.0M sodium pyruvate solution (the concentration was calculated in terms of pyruvic acid) was prepared firstly, the pH was adjusted to the range of 7.0-7.2, and the solution was sterilized separately for later use. Before use, 1ml of 1.0M sodium pyruvate solution was added to about 100ml of modified Stevenson culture medium with (NH4)2SO4 as a nitrogen source or L-arginine hydrochloride (C6H14N4O2•HCl) as a nitrogen source, and the pyruvic acid concentration of the culture system was designed to be 0.01M.
Four kinds of nitrification inhibitors 4-amino-1,2,4-triazole (ATC), dicyandiamide (DCD, C2H4N4), aminoguanidine hydrochloride (CH6N4•HCl), and guanylthiourea (C2H6N4S) were selected. The four nitrification inhibitors were prepared with a concentration of 500mM, respectively, after the solutions were filtered and sterilized, 1ml of the four nitrification inhibitors with a concentration of 500mM was added into the two medium with different nitrogen sources, such that the corresponding concentration of each of the nitrification inhibitors in the systems was 5 mM.
Two mediums with different nitrogen sources were respectively subjected to 5 treatments, namely without addition of an inhibitor, adding ATC, adding DCD, adding aminoguanidine hydrochloride, and adding guanylthiourea as shown in the table below; the YT system without addition of an inhibitor and the system without inoculation of strain YT and only addition of an inhibitor were respectively used as a control group; 1ml of PBS-YT bacterial liquid was inoculated, and 1ml of sterile water was used as a substitute when the inoculation of a bacterial strain was not performed. The total volume of each culture system was equal, it was about 100 ml.
1.5 Culture conditions: the culture was performed in a shaking table with a rotational speed of 180rpm at 28°C.
1.6 Measurement and calculation of indicator: the growth OD600 and pH value of thallus in the culture solution were measured every week, the contents of NH4^+-N, NO2^--N and NOx^--N were measured, the inhibition effect of the nitric oxide synthase (nitrification) activity of different culture systems were calculated and compared.
Nitric oxide synthase (nitrification) inhibition rate (%) = (NO2^--NYT concentration - NO2^--Nculture system added with an inhibitor concentration) ×100/ NO2^--NYT concentration

[1] = 504 h, strain YT, Ammonium sulfate, Culture 21 days
[2] = 504 h, strain YT, L-arginine hydrochloride, Culture 21 days
[3] = 672 h, strain YT, Ammonium sulfate, Culture 28 days
[4] = 672 h, strain YT, L-arginine hydrochloride, Culture 28 days
[5] = strain YT, Ammonium sulfate, Culture 7 days (Table 13d)
[6] = strain YT, Ammonium sulfate, Culture 14 days (Table 13d)
[7] = strain YT, Ammonium sulfate, Culture 35 days
[8] = strain YT, L-arginine hydrochloride, Culture 14 days (Table 13d)
[9] = strain YT, L-arginine hydrochloride, Culture 35 days
[10] = strain YT, L-arginine hydrochloride as nitrogen source, 7 days
[11] = strain YT, L-arginine hydrochloride as nitrogen source, 14 days
[12] = strain YT, L-arginine hydrochloride as nitrogen source, 21 days
[13] = strain YT, L-arginine hydrochloride as nitrogen source, 28 days
[14] = strain YT, L-arginine hydrochloride as nitrogen source, 35 days
[15] = strain YT, ammonium sulfate as nitrogen source, 7 days
[16] = strain YT, ammonium sulfate as nitrogen source, 14 days
[17] = strain YT, ammonium sulfate as nitrogen source, 21 days
[18] = strain YT, ammonium sulfate as nitrogen source, 28 days
[19] = strain YT, ammonium sulfate as nitrogen source, 35 days
[20] = strain YT, L-arginine hydrochloride as nitrogen source, 7 days (Table 13c)
[21] = strain YT, L-arginine hydrochloride as nitrogen source, 14 days (Table 13c)
[22] = strain YT, L-arginine hydrochloride as nitrogen source, 20 days
[23] = strain YT, L-arginine hydrochloride as nitrogen source, 31 days
[24] = strain YT, ammonium sulfate as nitrogen source, 7 days (Table 13c)
[25] = strain YT, ammonium sulfate as nitrogen source, 14 days (Table 13c)
[26] = strain YT, ammonium sulfate as nitrogen source, 20 days
[27] = strain YT, ammonium sulfate as nitrogen source, 31 days

## N=C(N)NN [Aminoguanidine hydrochloride, aminoguanidine hydrochloride]
[1]
  inhibition at 5000 µM: 99.4%
[2]
  inhibition at 5000 µM: 99.8%
[3]
  inhibition at 5000 µM: 97.2%
[4]
  inhibition at 5000 µM: 99.5%
[5]
  inhibition at 5000 µM: 99.2%
[6]
  inhibition at 5000 µM: 99.7%
[7]
  inhibition at 5000 µM: 98%
[8]
  inhibition at 5000 µM: 99.8%
[9]
  inhibition at 5000 µM: 99.1%
  effect on growth of strain YT: can inhibit the growth
  effect on nitrification activity of strain YT: had an inhibitory effect
[10]
  NH4^+-N: 12.86 mg/L
  NO2^--N: 0 mg/L
[11]
  NH4^+-N: 38.07 mg/L
  NO2^--N: 0.24 mg/L
[12]
  NH4^+-N: 100.12 mg/L
  NO2^--N: 0.28 mg/L
[13]
  NH4^+-N: 145.55 mg/L
  NO2^--N: 0.58 mg/L
[14]
  NH4^+-N: 58.70 mg/L
  NO2^--N: 1.00 mg/L
Strain YT, L-arginine hydrochloride as nitrogen source
  inhibition rate on nitrification activity: ≥ 99%
[15]
  NH4^+-N: 418.92 mg/L
  NO2^--N: 0 mg/L
[16]
  NH4^+-N: 419.06 mg/L
  NO2^--N: 0.01 mg/L
[17]
  NH4^+-N: 438.98 mg/L
  NO2^--N: 0.03 mg/L
[18]
  NH4^+-N: 448.65 mg/L
  NO2^--N: 0.19 mg/L
[19]
  NH4^+-N: 468.07 mg/L
  NO2^--N: 0.14 mg/L
Strain YT, ammonium sulfate as nitrogen source
  inhibition rate on nitrification activity: more than 97%

## N=C(N)NC(N)=S [Amidinothiourea, guanylthiourea]
[1]
  inhibition at 5000 µM: 59.8%
[2]
  inhibition at 5000 µM: 72.7%
[3]
  inhibition at 5000 µM: 33.5%
[4]
  inhibition at 5000 µM: 77.4%
[5]
  inhibition at 5000 µM: 95.6%
[6]
  inhibition at 5000 µM: 94.8%
[7]
  inhibition at 5000 µM: 11%
  Nitric oxide synthase (nitrification) activity inhibition rate (%): 11.07%
[8]
  inhibition at 5000 µM: 98.3%
[9]
  inhibition at 5000 µM: 72%
  Nitric oxide synthase (nitrification) activity inhibition rate (%): 71.62%
  effect on growth of strain YT: can obviously inhibit the growth
  effect on nitrification activity of strain YT: also exhibited inhibitory effect
[10]
  NH4^+-N: 8.13 mg/L
  NO2^--N: 0 mg/L
[11]
  NH4^+-N: 175.90 mg/L
  NO2^--N: 1.72 mg/L
[12]
  NH4^+-N: 154.73 mg/L
  NO2^--N: 31.10 mg/L
[13]
  NH4^+-N: 138.43 mg/L
  NO2^--N: 25.70 mg/L
[14]
  NH4^+-N: 165.02 mg/L
  NO2^--N: 32.26 mg/L
[15]
  NH4^+-N: 395.07 mg/L
  NO2^--N: 0.02 mg/L
[16]
  NH4^+-N: 418.86 mg/L
  NO2^--N: 0.13 mg/L
[17]
  NH4^+-N: 407.33 mg/L
  NO2^--N: 1.64 mg/L
[18]
  NH4^+-N: 419.92 mg/L
  NO2^--N: 4.57 mg/L
[19]
  NH4^+-N: 422.98 mg/L
  NO2^--N: 6.12 mg/L
Strain YT, two nitrogen sources, before 14 days of culture
  inhibition rate on nitric oxide synthase (nitrification) activities: ≥ 95%

## N#CN=C(N)N [DCD, dicyandiamide]
168 h, strain YT, Ammonium sulfate, Culture 7 days (Table 13e)
  inhibition at 5000 µM: 0%
168 h, strain YT, L-arginine hydrochloride, Culture 7 days (Table 13e)
  inhibition at 5000 µM: 0%
336 h, strain YT, Ammonium sulfate, Culture 14 days (Table 13e)
  inhibition at 5000 µM: 0%
336 h, strain YT, L-arginine hydrochloride, Culture 14 days (Table 13e)
  inhibition at 5000 µM: 7.14%
480 h, strain YT, Ammonium sulfate, Culture 20 days
  inhibition at 5000 µM: 32.4%
480 h, strain YT, L-arginine hydrochloride, Culture 20 days
  inhibition at 5000 µM: 0.72%
Strain YT, Ammonium sulfate, Culture 31 days
  inhibition at 5000 µM: 8.62%
Strain YT, L-arginine hydrochloride, Culture 31 days
  inhibition at 5000 µM: 0%
  effect on growth of strain YT: did not inhibit the growth
  effect on nitrification activity of strain YT: did not impose an inhibitory effect
[20]
  NH4^+-N: 18
  NO2^--N: 0.50
  OD600: 0.397
[21]
  NH4^+-N: 121
  NO2^--N: 32.5
  OD600: 0.438
[22]
  NH4^+-N: 191
  NO2^--N: 152.77
  OD600: 0.415
[23]
  NH4^+-N: 173
  NO2^--N: 153.87
  OD600: 0.378
[24]
  NH4^+-N: 421
  NO2^--N: 1.00
  OD600: 0.207
[25]
  NH4^+-N: 408
  NO2^--N: 2.50
  OD600: 0.121
[26]
  NH4^+-N: 355
  NO2^--N: 3.20
  OD600: 0.127
[27]
  NH4^+-N: 382
  NO2^--N: 5.11
  OD600: 0.128
